Assay results: patent publication US10072017B2, “Compounds and methods for the treatment of cystic fibrosis” (Flatley Discovery Lab, LLC, priority 2015, dated 2018)

Biological target: T1, CFTR (Homo sapiens, UniProt P13569, DEL508-508)
T1 construct: Primary CF airway epithelial cells were obtained from the UNC Cystic Fibrosis Tissue Procurement and Cell Culture Core; host or cells: primary CF airway epithelial cells
Test: Equivalent current assay in Primary CF airway epithelial cells (NAUC)
Type: cell-based
Conditions: 24 h, normalized to VX809 (3 μM) positive control; for Nauc @ 3 μM: 3 μM test compound; for Nauc @ 10 μM: 10 μM test compound
Method in brief: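 Primary CF airway epithelia differentiated ≥4 weeks at air-liquid interface, treated basolaterally 24 h at 37 °C with test compounds in combination with VX809, 0.1% DMSO vehicle. Equivalent current recorded after 5 μM benzamil, 10 μM forskolin plus 1 μM VX770, then CFTR-172/bumetanide 20 μM; vehicle-subtracted AUC normalized to 3 μM VX809 (NAUC), median of n≥4, sigmoid fit for EC50.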

T1 sequence (P13569 with tags, fused parts or gaps DEL508-508): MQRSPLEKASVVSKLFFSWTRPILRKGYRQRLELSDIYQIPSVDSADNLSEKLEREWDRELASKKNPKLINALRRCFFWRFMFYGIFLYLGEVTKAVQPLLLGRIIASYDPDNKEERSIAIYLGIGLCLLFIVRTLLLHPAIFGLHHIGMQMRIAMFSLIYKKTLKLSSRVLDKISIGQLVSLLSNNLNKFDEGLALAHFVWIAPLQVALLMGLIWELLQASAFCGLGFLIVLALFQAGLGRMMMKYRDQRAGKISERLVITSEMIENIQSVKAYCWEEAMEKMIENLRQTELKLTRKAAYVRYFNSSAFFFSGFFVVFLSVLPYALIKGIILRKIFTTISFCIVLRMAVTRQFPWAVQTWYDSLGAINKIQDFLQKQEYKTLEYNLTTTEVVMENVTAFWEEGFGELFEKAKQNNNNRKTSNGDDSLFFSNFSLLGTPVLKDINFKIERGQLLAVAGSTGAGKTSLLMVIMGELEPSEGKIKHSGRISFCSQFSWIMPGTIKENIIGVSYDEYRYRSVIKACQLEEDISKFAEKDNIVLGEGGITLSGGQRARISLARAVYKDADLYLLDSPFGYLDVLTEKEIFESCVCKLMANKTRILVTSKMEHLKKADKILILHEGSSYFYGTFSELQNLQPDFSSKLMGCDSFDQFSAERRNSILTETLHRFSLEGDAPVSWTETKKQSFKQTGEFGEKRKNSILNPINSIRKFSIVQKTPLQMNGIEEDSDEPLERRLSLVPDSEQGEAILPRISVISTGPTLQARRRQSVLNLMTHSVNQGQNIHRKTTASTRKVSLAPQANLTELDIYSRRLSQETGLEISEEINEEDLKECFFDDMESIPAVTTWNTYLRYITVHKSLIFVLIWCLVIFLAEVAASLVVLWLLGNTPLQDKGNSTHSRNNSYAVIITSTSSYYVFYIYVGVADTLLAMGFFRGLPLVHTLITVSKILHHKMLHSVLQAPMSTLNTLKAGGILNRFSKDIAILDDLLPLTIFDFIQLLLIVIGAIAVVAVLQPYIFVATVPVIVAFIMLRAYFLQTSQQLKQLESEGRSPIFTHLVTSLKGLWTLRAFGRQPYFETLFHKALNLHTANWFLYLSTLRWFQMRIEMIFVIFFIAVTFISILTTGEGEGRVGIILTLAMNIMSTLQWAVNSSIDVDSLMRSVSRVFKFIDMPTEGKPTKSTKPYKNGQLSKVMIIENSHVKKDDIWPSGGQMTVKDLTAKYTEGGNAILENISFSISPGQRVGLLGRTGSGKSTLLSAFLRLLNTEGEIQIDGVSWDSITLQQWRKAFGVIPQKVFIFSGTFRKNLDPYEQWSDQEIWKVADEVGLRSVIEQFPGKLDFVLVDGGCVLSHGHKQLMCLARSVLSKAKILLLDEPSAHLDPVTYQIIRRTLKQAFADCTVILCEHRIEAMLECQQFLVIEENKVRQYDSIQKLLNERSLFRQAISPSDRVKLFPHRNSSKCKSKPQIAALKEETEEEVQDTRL

Compound	Nauc @ 3 μM	Nauc @ 10 μM
[2H]C12C(=O)N(c3cc(Cl)c(OC)c(Cl)c3)C(=O)C1([2H])C1(C(=O)Nc3c(Cl)cc(Cl)cc31)N1C[C@@H](Cl)CC12 (stereo partly drawn) [Example 148]	+++ (NAUC “+++” refers to an observed NAUC >170% of positive control)	+++ (NAUC “+++” refers to an observed NAUC >170% of positive control)
[2H]C12C(=O)N(c3cc(Cl)c(OC)c(Cl)c3)C(=O)C1([2H])C1(C(=O)Nc3c(Cl)cc(Cl)cc31)N1CC(C)(C)CC12 (stereo not drawn) [Example 149]	+++ (NAUC “+++” refers to an observed NAUC >170% of positive control)	+++ (NAUC “+++” refers to an observed NAUC >170% of positive control)
O=C(O)c1cccc(C2C3C(=O)N(c4cc(Cl)cc(Cl)c4)C(=O)C3C3CCCN32)c1 (stereo not drawn) [Example 150]	+ (NAUC “+” refers to an observed NAUC <140% of positive control)	++ (NAUC “++” refers to an observed NAUC 170-140% of positive control)
CC(C)(C)NC(=O)N[C@H]1CC2C3C(=O)N(c4cc(Cl)cc(Cl)c4)C(=O)C3C3(C(=O)Nc4c(Cl)cc(Cl)cc43)N2C1 (stereo partly drawn) [Example 153]	+ (NAUC “+” refers to an observed NAUC <140% of positive control)	++ (NAUC “++” refers to an observed NAUC 170-140% of positive control)
O=C1C2C(Cc3ccccc3)NC3(C(=O)Nc4c(Cl)cc(Cl)cc43)C2C(=O)N1c1cc(Cl)cc(Cl)c1 (stereo not drawn) [Example 154]	+++ (NAUC “+++” refers to an observed NAUC >170% of positive control)	+++ (NAUC “+++” refers to an observed NAUC >170% of positive control)
O=C1C2C(Cc3c[nH]c4ccccc34)NC3(C(=O)Nc4c(Cl)cc(Cl)cc43)C2C(=O)N1c1cc(Cl)cc(Cl)c1 (stereo not drawn) [Example 155]	++ (NAUC “++” refers to an observed NAUC 170-140% of positive control)	+ (NAUC “+” refers to an observed NAUC <140% of positive control)
C[C@]1(O)CC2C3C(=O)N(c4cc(Cl)cc(Cl)c4)C(=O)C3C3(C(=O)Nc4c(Cl)cc(Cl)cc43)N2C1 (stereo partly drawn) [Example 156]	++ (NAUC “++” refers to an observed NAUC 170-140% of positive control)	+++ (NAUC “+++” refers to an observed NAUC >170% of positive control)
O=C(O)CC1NC2(C(=O)Nc3c(Cl)cc(Cl)cc32)C2C(=O)N(c3cc(Cl)cc(Cl)c3)C(=O)C12 (stereo not drawn) [Example 157]	+++ (NAUC “+++” refers to an observed NAUC >170% of positive control)	+ (NAUC “+” refers to an observed NAUC <140% of positive control)
COc1cc(Cl)cc(N2C(=O)C3C4C[C@](C)(O)CN4C4(C(=O)Nc5c(Cl)cc(Cl)cc54)C3C2=O)c1 (stereo partly drawn) [Example 158]	++ (NAUC “++” refers to an observed NAUC 170-140% of positive control)	+++ (NAUC “+++” refers to an observed NAUC >170% of positive control)
COc1c(Cl)cc(N2C(=O)C3C4C[C@](C)(O)CN4C4(C(=O)Nc5c(Cl)cc(Cl)cc54)C3C2=O)cc1Cl (stereo partly drawn) [Example 159]	+++ (NAUC “+++” refers to an observed NAUC >170% of positive control)	+++ (NAUC “+++” refers to an observed NAUC >170% of positive control)
COc1cc(Cl)cc(N2C(=O)C3C4C[C@](C)(F)CN4C4(C(=O)Nc5c(Cl)cc(Cl)cc54)C3C2=O)c1 (stereo partly drawn) [Example 160]	+ (NAUC “+” refers to an observed NAUC <140% of positive control)	++ (NAUC “++” refers to an observed NAUC 170-140% of positive control)
N=C(N)NCCCC1NC2(C(=O)Nc3c(Cl)cc(Cl)cc32)C2C(=O)N(c3cc(Cl)cc(Cl)c3)C(=O)C12 (stereo not drawn) [Example 163]	++ (NAUC “++” refers to an observed NAUC 170-140% of positive control)	+ (NAUC “+” refers to an observed NAUC <140% of positive control)
CC(C)CC1NC2(C(=O)Nc3c(Cl)cc(Cl)cc32)C2C(=O)N(c3cc(Cl)cc(Cl)c3)C(=O)C12 (stereo not drawn) [Example 164]	++ (NAUC “++” refers to an observed NAUC 170-140% of positive control)	+++ (NAUC “+++” refers to an observed NAUC >170% of positive control)
O=C1C2C(CO)NC3(C(=O)Nc4c(Cl)cc(Cl)cc43)C2C(=O)N1c1cc(Cl)cc(Cl)c1 (stereo not drawn) [Example 165]	++ (NAUC “++” refers to an observed NAUC 170-140% of positive control)	++ (NAUC “++” refers to an observed NAUC 170-140% of positive control)
CC(O)C1NC2(C(=O)Nc3c(Cl)cc(Cl)cc32)C2C(=O)N(c3cc(Cl)cc(Cl)c3)C(=O)C12 (stereo not drawn) [Example 166]	++ (NAUC “++” refers to an observed NAUC 170-140% of positive control)	++ (NAUC “++” refers to an observed NAUC 170-140% of positive control)
COC1(OC)CC2C3C(=O)N(c4cc(Cl)cc(Cl)c4)C(=O)C3C3(C(=O)Nc4c(Cl)cc(Cl)cc43)N2C1 (stereo not drawn) [Example 167]	+ (NAUC “+” refers to an observed NAUC <140% of positive control)	++ (NAUC “++” refers to an observed NAUC 170-140% of positive control)
COc1c(Cl)cc(N2C(=O)C3C4CC(OC)(OC)CN4C4(C(=O)Nc5c(Cl)cc(Cl)cc54)C3C2=O)cc1Cl (stereo not drawn) [Example 168]	+ (NAUC “+” refers to an observed NAUC <140% of positive control)	++ (NAUC “++” refers to an observed NAUC 170-140% of positive control)
O=C1C2C3CC4(CN3C3(C(=O)Nc5c(Cl)cc(Cl)cc53)C2C(=O)N1c1cc(Cl)cc(Cl)c1)OCCO4 (stereo not drawn) [Example 169]	+ (NAUC “+” refers to an observed NAUC <140% of positive control)	++ (NAUC “++” refers to an observed NAUC 170-140% of positive control)
C[C@]1(O)CC2C3C(=O)N(c4cc(Cl)cc(Cl)c4)C(=O)C3C3(C(=O)Nc4c(Cl)cc(Cl)cc43)N2C1 (stereo partly drawn) [Example 171]	+++ (NAUC “+++” refers to an observed NAUC >170% of positive control)	+++ (NAUC “+++” refers to an observed NAUC >170% of positive control)
C[C@]1(O)CC2C3C(=O)N(c4cc(Cl)cc(Cl)n4)C(=O)C3C3(C(=O)Nc4c(Cl)cc(Cl)cc43)N2C1 (stereo partly drawn) [Example 172]	++ (NAUC “++” refers to an observed NAUC 170-140% of positive control)	+++ (NAUC “+++” refers to an observed NAUC >170% of positive control)
C[C@@]1(F)CC2C3C(=O)N(c4cc(Cl)cc(Cl)n4)C(=O)C3C3(C(=O)Nc4c(Cl)cc(Cl)cc43)N2C1 (stereo partly drawn) [Example 173]	+++ (NAUC “+++” refers to an observed NAUC >170% of positive control)	+++ (NAUC “+++” refers to an observed NAUC >170% of positive control)
O=C1C2C3CC4(CC4)CN3C3(C(=O)Nc4c(Cl)cc(Cl)cc43)C2C(=O)N1c1cc(Cl)cc(Cl)c1 (stereo not drawn) [Example 174]	+++ (NAUC “+++” refers to an observed NAUC >170% of positive control)	+++ (NAUC “+++” refers to an observed NAUC >170% of positive control)
CC1(C)CC2C3C(=O)N(c4cc(Cl)cc(Cl)n4)C(=O)C3C3(C(=O)Nc4c(Cl)cc(Cl)cc43)N2C1 (stereo not drawn) [Example 175]	+++ (NAUC “+++” refers to an observed NAUC >170% of positive control)	+++ (NAUC “+++” refers to an observed NAUC >170% of positive control)
CC1(C)CC2C3C(=O)N(c4cc(Cl)cc(Cl)n4)C(=O)C3C3(C(=O)Nc4c(Cl)cc(Cl)cc43)N2C1 (stereo not drawn) [Example 176]	++ (NAUC “++” refers to an observed NAUC 170-140% of positive control)	++ (NAUC “++” refers to an observed NAUC 170-140% of positive control)
COc1c(Cl)cc(N2C(=O)C3C4CC5(CC5)CN4C4(C(=O)Nc5c(Cl)cc(Cl)cc54)C3C2=O)cc1Cl (stereo not drawn) [Example 177]	++ (NAUC “++” refers to an observed NAUC 170-140% of positive control)	+++ (NAUC “+++” refers to an observed NAUC >170% of positive control)
O=C1C2C(Cc3ccccc3F)NC3(C(=O)Nc4c(Cl)cc(Cl)cc43)C2C(=O)N1c1cc(Cl)cc(Cl)c1 (stereo not drawn) [Example 181]	+++ (NAUC “+++” refers to an observed NAUC >170% of positive control)	+++ (NAUC “+++” refers to an observed NAUC >170% of positive control)
Cc1cccc(N2C(=O)C3C4CCCN4C4(C(=O)Nc5c(Cl)cc(Cl)cc54)C3C2=O)n1 (stereo not drawn) [Example 183]	++ (NAUC “++” refers to an observed NAUC 170-140% of positive control)	+ (NAUC “+” refers to an observed NAUC <140% of positive control)
O=C1C2C3CC4(CC4)CN3C3(C(=O)Nc4c(Cl)cc(Cl)cc43)C2C(=O)N1c1cc(Cl)cc(Cl)n1 (stereo not drawn) [Example 184]	+++ (NAUC “+++” refers to an observed NAUC >170% of positive control)	+++ (NAUC “+++” refers to an observed NAUC >170% of positive control)
[2H]C([2H])([2H])C1(C([2H])([2H])[2H])CC2C3C(=O)N(c4cc(Cl)cc(Cl)c4)C(=O)C3C3(C(=O)Nc4c(Cl)cc(Cl)cc43)N2C1 (stereo not drawn) [Example 185]	+++ (NAUC “+++” refers to an observed NAUC >170% of positive control)	+++ (NAUC “+++” refers to an observed NAUC >170% of positive control)
N#Cc1ccccc1CC1NC2(C(=O)Nc3c(Cl)cc(Cl)cc32)C2C(=O)N(c3cc(Cl)cc(Cl)c3)C(=O)C12 (stereo not drawn) [Example 186]	+ (NAUC “+” refers to an observed NAUC <140% of positive control)	+++ (NAUC “+++” refers to an observed NAUC >170% of positive control)
